The source of these data is PMC11460632, “Chemical modification of hyaluronan oligosaccharides differentially modulates hyaluronan–hyaladherin interactions” (The Journal of Biological Chemistry, 2024).

Test [1] deals with T1, Link_TSG6 (Homo sapiens, UniProt P98066).
T1 construct: made in house
The test is described as follows: ITC of HA oligosaccharides binding to Link_TSG6. Conditions: for N / ΔG / ΔH / −TΔS / Kd: 25 °C, 5 mM MES pH 6.0, mean ± SEM; for N: 0.029 mM Link_TSG6, 0.29 mM oligosaccharide; for N / Kd: four titrations; for Kd: read-out: KD; for % Binding affinity Link_TSG6: Table 6, relative to unmodified oligosaccharide of the same length, by ITC. Here is the method:
ITC experiments were performed using a MicroCal PEAQ-ITC instrument (Malvern Instruments). Oligosaccharide stock solutions were prepared at 0.29 mM (in 5 mM MES, pH 6.0) and injected (18 × 2 μl with 120 s spacing between injections) into the cell containing ∼200 μl Link_TSG6 (0.029 mM) in matched buffer at 25 °C. Data were fit to a one site binding model, after subtracting the heats from the last three injections to account for heat of dilution of the oligosaccharide into buffer. Each oligosaccharide was analyzed in four independently performed ITC experiments.

Test [2] addresses T2, recombinant human TSG-6 (Homo sapiens, UniProt P19827+P98066).
T2 construct: TSG-6–mediated HC-transfer assays (using full-length TSG6); purchased R&D Systems
The test is described as follows: In vitro HC-transfer assay (IαI + rhTSG-6, Western blot anti-HC1). It counts as biochemical. Conditions: 15 μM HA, 1.8 μM IαI, rhTSG-6, 2 h at 37 °C; for Substrate for HC transfer: Table 6. Here is the method: Covalent transfer of HC from IαI onto unmodified and chemically modified HA oligosaccharides was analyzed using the assay described previously ([26]). All reactions were performed using a buffer of 20 mM Hepes, pH 7.5, 150 mM NaCl, and 5 mM MgCl2. In a “standard” assay, HA oligosaccharides were at 15 μM, human IαI ([97]) 1.8 at μM (based on a molecular weight of 180 kDa), and recombinant human TSG-6 (R&D Systems) at 2.8 μM (based on a molecular weight of 35 kDa). Reaction mixtures were analyzed by SDS-PAGE using 4 to 12% bis-tris polyacrylamide gels (Invitrogen). For Western blot analysis, proteins were transferred onto nitrocellulose membrane (GE Healthcare) and incubated with antisera against HC1 (CP7, 1:10,000; ([98])). Bound primary antibody was detected using goat-anti-rabbit IgG conjugated to IR dye (LI-COR Biosciences) and blots imaged using an Odyssey Clx near-IR fluorescence imaging system (LICOR Biosciences).

The target of test [3] is T3, hisCD44_HABD^20–169 (Homo sapiens, UniProt P16070).
T3 construct: A novel construct consisting of residues 20 to 169 of human CD44 and an N-terminal six-histidine tag; made in house
The test is described as follows: MST of HA oligosaccharides binding to hisCD44_HABD^20–169. As to conditions: for % Binding affinity hisCD44_HABD^20–169: Table 6, relative to unmodified oligosaccharide of the same length, by MST. Here is the method: For hisCD44_HABD^20–169, interactions with HA oligosaccharides were assessed using MST. Protein (200 nM) was labeled with 5 μM red-Tris-NTA-650 dye following the manufacturer’s instructions in 10 mM Hepes, pH 7.4, 150 mM NaCl, 0.05% (v/v) Tween-20 (interaction buffer). Stock solutions of HA oligosaccharides (5 mM in interaction buffer) were serially diluted (1:1 in interaction buffer) 16 times before each concentration was mixed with an equal volume of labeled protein (10 nM final concentration hisCD44_HABD^20–169). Samples were loaded into standard glass capillaries (NanoTemper) and thermophoresis measured at 25 °C (with active temperature control) using a Monolith NT.115pico instrument (NanoTemper) running NT Control software (version 1.0.1). All experiments were performed in triplicate and data analyzed with the “KD fit model” in the NT Analysis software (version 2.0.2).

In test [4] the test system is Link_TSG6. The arrangement: method as in PMID 24403066. As to conditions: cited from earlier work.
[5] abbreviates: Table 5, MST, 10 mM Hepes pH 7.5, 150 mM NaCl, 0.05% Tween-20, 25 °C, mean ± SD, three titrations, read-out: KD.

Each structure is given as a SMILES string. Where two headings read alike, the source gives them in different places.

T2 sequence (P98066 18-277): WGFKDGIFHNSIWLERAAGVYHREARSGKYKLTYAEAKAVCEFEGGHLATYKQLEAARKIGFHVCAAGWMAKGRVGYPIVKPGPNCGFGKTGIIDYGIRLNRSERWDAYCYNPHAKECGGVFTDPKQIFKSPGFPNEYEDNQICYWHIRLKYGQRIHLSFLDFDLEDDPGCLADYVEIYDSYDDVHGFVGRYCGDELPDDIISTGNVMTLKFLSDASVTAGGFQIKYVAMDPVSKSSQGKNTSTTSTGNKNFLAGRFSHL
T2 sequence (P19827 35-672 limits assumed): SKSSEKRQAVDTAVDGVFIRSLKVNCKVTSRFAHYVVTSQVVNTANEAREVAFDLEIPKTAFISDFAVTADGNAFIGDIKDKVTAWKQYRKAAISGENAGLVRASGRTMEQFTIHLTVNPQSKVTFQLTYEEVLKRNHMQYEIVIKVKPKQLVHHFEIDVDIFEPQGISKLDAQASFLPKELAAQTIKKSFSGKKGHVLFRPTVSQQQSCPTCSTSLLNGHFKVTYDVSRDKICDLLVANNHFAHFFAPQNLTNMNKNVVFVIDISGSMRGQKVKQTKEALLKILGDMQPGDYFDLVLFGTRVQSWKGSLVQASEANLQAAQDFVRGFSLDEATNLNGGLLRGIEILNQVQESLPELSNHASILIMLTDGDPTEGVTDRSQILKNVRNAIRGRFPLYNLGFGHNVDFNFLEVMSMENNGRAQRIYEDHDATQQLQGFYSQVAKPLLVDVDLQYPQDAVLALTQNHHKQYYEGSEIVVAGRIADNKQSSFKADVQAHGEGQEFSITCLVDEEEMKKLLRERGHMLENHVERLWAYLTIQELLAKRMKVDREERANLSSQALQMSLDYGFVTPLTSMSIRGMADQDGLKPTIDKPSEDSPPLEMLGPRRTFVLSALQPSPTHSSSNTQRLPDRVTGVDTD
T1 sequence (P98066 36-129 limits assumed): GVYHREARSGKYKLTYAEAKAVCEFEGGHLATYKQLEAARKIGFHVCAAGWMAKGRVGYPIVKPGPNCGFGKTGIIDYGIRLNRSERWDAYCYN
T3 sequence (P16070 20-169): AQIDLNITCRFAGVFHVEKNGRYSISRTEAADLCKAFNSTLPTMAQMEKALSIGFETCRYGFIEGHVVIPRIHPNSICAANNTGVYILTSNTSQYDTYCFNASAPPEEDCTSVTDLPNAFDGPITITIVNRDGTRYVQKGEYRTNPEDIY

`COc1ccc(C(=O)O)c(NC[C@H](NC(C)=O)[C@@H](O[C@@H]2O[C@H](C(=O)O)[C@@H](O[C@@H]3O[C@H](CO)[C@@H](O)[C@H](O[C@@H]4O[C@H](C(=O)O)[C@@H](O[C@@H]5O[C@H](CO)[C@@H](O)[C@H](O[C@@H]6O[C@H](C(=O)O)[C@@H](O[C@@H]7O[C@H](CO)[C@@H](O)[C@H](O[C@@H]8O[C@H](C(=O)O)[C@@H](O)[C@H](O)[C@H]8O)[C@H]7NC(C)=O)[C@H](O)[C@H]6O)[C@H]5NC(C)=O)[C@H](O)[C@H]4O)[C@H]3NC(C)=O)[C@H](O)[C@H]2O)[C@H](O)[C@H](O)CO)c1` [HA8-2A4MBA]: in test [1] (ITC), the “% of binding to Link_TSG6 compared to the unmodified oligosaccharide of the same length” value stood at 21% and the “Fold reduction in affinity for Link_TSG6 compared to the unmodified oligosaccharide” value came to 4.8 fold. In addition, in test [1] (Table 4, ITC), the N is listed as 1.04 ± 0.08, the ΔG was -8.23 ± 0.40 kcal/mol, the ΔH was -8.06 ± 1.55 kcal/mol and the “−TΔS” value was −0.16 ± 1.94 kcal•mol^a1. In addition, in test [1] (Table 4, ITC), the Kd came out at 1.46 ± 0.96 µM. Further, the “% Binding affinity Link_TSG6” value in test [1] is listed as 21%. Further, the “Substrate for HC transfer” value in test [2] is “Yes”. Further, in test [3] (MST), the “% of binding to hisCD44_HABD^20–169 compared to the unmodified oligosaccharide of the same length” value is 141% and the “Fold increase in affinity for CD44_HABD compared to the unmodified oligosaccharide” value stood at 1.4 fold. The “% HAx^AN: percentage of binding affinity (KB) compared to the unmodified oligosaccharide of the same length” value (shortened to “% HAx^AN: percentage of binding affinity”) in test [3] (Table 5, MST) amounted to 141%. In addition, the Kd in test [3] (setting [5]) came to 36 ± 9 µM. Moreover, in test [3], the “% Binding affinity hisCD44_HABD^20–169” value was 141%.

As to `CC(=O)N[C@H]1[C@H](O[C@H]2[C@H](O)[C@@H](O)[C@H](O[C@H]3[C@H](O)[C@@H](CO)O[C@@H](O[C@H]4[C@H](O)[C@@H](O)[C@H](O[C@H]5[C@H](O)[C@@H](CO)O[C@@H](O[C@H]6[C@H](O)[C@@H](O)[C@H](O[C@H]7[C@H](O)[C@@H](CO)OC(O)[C@@H]7NC(C)=O)O[C@@H]6C(=O)O)[C@@H]5NC(C)=O)O[C@@H]4C(=O)O)[C@@H]3NC(C)=O)O[C@@H]2C(=O)O)O[C@H](CO)[C@@H](O)[C@@H]1O[C@@H]1O[C@H](C(=O)O)[C@@H](O)[C@H](O)[C@H]1O` (some centres unmarked) [HA8^AN, reference compound], the “Fold greater affinity for Link_TSG6 (compared to HA8^AN)” value in test [4] is 1.9 fold. In test [1] (Table 1, ITC), the N turned out to be 0.98 ± 0.01, the ΔG is -8.89 ± 0.03 kcal/mol, the ΔH was -7.26 ± 0.20 kcal/mol and the “−TΔS” value is -1.63 ± 0.24 kcal/mol. Also, the Kd in test [1] (Table 1, ITC) was determined as 0.31 ± 0.02 µM. Further, the “−TΔS” value in test [1] (Table 4, ITC) is −1.63 ± 0.24 kcal•mol^a1. Further, the “% Binding affinity Link_TSG6” value in test [1] is 100%. The “Substrate for HC transfer” value in test [2] is on record as “Yes”. The “Activity as substrate for HC transfer (text)” value in test [2] (Western blot anti-HC1) is “acted as substrates”. The equilibrium dissociation constant (Kd) in test [3] (MST, read-out: KD for hisCD44_HABD^20–169) is ~50 µM. Also, the “% HAn^AN: percentage of binding affinity (KB) compared to the unmodified oligosaccharide of the same length” value in test [3] (Table 2, MST) was 100%. Moreover, the equilibrium dissociation constant (Kd) in test [3] (Table 2, MST, 10 mM Hepes pH 7.5, 150 mM NaCl, 0.05% Tween-20, 25 °C, mean (±SD), three titrations, read-out: KD) was 51 µM. In addition, the “% HAx^AN: percentage of binding affinity” value in test [3] (Table 5, MST) worked out at 100%. For the same compound, the Kd in test [3] (setting [5]) was 51 ± 5 µM. For the same compound, in test [3], the “% Binding affinity hisCD44_HABD^20–169” value is 100%.

With `CC(=O)N[C@H]1[C@H](O[C@H]2[C@H](O)[C@@H](O)[C@H](O[C@H]3[C@H](O)[C@@H](CO)O[C@@H](O[C@H]4[C@H](O)[C@@H](O)[C@H](O[C@H]5[C@H](O)[C@@H](CO)O[C@@H](O[C@H]6[C@H](O)[C@@H](O)[C@H](O[C@@H]([C@H](O)[C@H](O)CO)[C@H](CNc7cc[nH]n7)NC(C)=O)O[C@@H]6C(=O)O)[C@@H]5NC(C)=O)O[C@@H]4C(=O)O)[C@@H]3NC(C)=O)O[C@@H]2C(=O)O)O[C@H](CO)[C@@H](O)[C@@H]1O[C@@H]1O[C@H](C(=O)O)[C@@H](O)[C@H](O)[C@H]1O` [HA8-3APY], in test [1] (Table 4, ITC), the N worked out at 1.19 ± 0.06, the ΔG is -8.97 ± 0.07 kcal/mol, the ΔH is -5.70 ± 0.34 kcal/mol and the “−TΔS” value is listed as −3.28 ± 0.28 kcal•mol^a1. The dissociation constant (Kd) in test [1] (Table 4, ITC) was found to be 0.27 ± 0.03 µM. The “% Binding affinity Link_TSG6” value in test [1] came to 115%. In test [2], the “Substrate for HC transfer” value is on record as “Yes”. In addition, in test [3] (MST), the “% of binding to hisCD44_HABD^20–169 compared to the unmodified oligosaccharide of the same length” value is reported as 23%. Moreover, the “% HAx^AN: percentage of binding affinity” value in test [3] (Table 5, MST) was 23%. Also, the Kd in test [3] (setting [5]) was found to be 220 ± 22 µM. Besides, the “% Binding affinity hisCD44_HABD^20–169” value in test [3] turned out to be 23%.

On to `CC(=O)N[C@H]1[C@H](O[C@H]2[C@H](O)[C@@H](O)[C@H](O[C@H]3[C@H](O)[C@@H](CO)O[C@@H](O[C@H]4[C@H](O)[C@@H](O)[C@H](O[C@H]5[C@H](O)[C@@H](CO)O[C@@H](O[C@H]6[C@H](O)[C@@H](O)[C@H](O[C@@H]([C@H](O)[C@H](O)CO)[C@H](CNc7ccc8c(c7)CCC8)NC(C)=O)O[C@@H]6C(=O)O)[C@@H]5NC(C)=O)O[C@@H]4C(=O)O)[C@@H]3NC(C)=O)O[C@@H]2C(=O)O)O[C@H](CO)[C@@H](O)[C@@H]1O[C@@H]1O[C@H](C(=O)O)[C@@H](O)[C@H](O)[C@H]1O` [HA8-5AI], for which, in test [1] (ITC), the “% of binding to Link_TSG6 compared to the unmodified oligosaccharide of the same length” value is listed as 207%. In addition, in test [1] (Table 4, ITC), the N is 0.97 ± 0.02, the ΔG is -9.34 ± 0.11 kcal/mol, the ΔH was -7.43 ± 0.25 kcal/mol and the “−TΔS” value is listed as −1.91 ± 0.33 kcal•mol^a1. Also, the Kd in test [1] (Table 4, ITC) was determined as 0.15 ± 0.03 µM. Further, the “% Binding affinity Link_TSG6” value in test [1] was determined as 207%. In test [2], the “Substrate for HC transfer” value is listed as “Yes”. For the same compound, the “% of binding to hisCD44_HABD^20–169 compared to the unmodified oligosaccharide of the same length” value in test [3] (MST) came out at 96%. The “% HAx^AN: percentage of binding affinity” value in test [3] (Table 5, MST) was determined as 96%. The Kd in test [3] (setting [5]) was found to be 54 ± 10 µM. Further, in test [3], the “% Binding affinity hisCD44_HABD^20–169” value turned out to be 96%.
